Article PMC7284870, “Antimicrobial Peptides from Rat-Tailed Maggots of the Drone Fly Eristalis tenax Show Potent Activity against Multidrug-Resistant Gram-Negative Bacteria” (Microorganisms, 2020)
Values after ≈ are worked out from the molar mass of the structure shown.

Key:
[1] = system: Salmonella enterica clinical isolates (10); assay: MIC, clinical isolates; format: cell-based
Method: (§1) The strains that were used in this study (Table 2 and Table S1) were cultivated at 37 °C in cation-adjusted Mueller–Hinton broth (CAMB) in Erlenmeyer flasks, or on the same medium with agar in Petri dishes. Exceptionally, Mycobacterium smegmatis was cultivated at 37 °C in brain heart infusion (BHI) medium that was supplemented with 1% Tween-80 in Erlenmeyer flasks, or on the same medium lacking detergent but with agar in Petri dishes. Strains listed with Robert Koch Institute (RKI) strain numbers are clinical isolates from the RKI strain collection originating from hospitalized patients in Germany. The remaining strains originated from the Sanofi strain collection and they were originally purchased from the American Type Culture Collection or the German Collection of Microorganisms and Cell Cultures. Meropenem/colistin-resistant strains were maintained, as described above, with the appropriate antibiotic added at levels below the minimal inhibitory concentration (MIC).
(§2) The MIC values were determined in 384-well microtiter plates with an assay volume of 20 µL. Immediately before each assay, the cultures of test organisms (bacteria grown for 18 h, Candida albicans and M. smegmatis grown for 48 h) were diluted with the appropriate medium to a density of 1 × 10^6 cells/mL (C. albicans), 1 × 10^5 cells/mL (M. smegmatis) or 5 × 10^5 cells per mL (other species). […] We transferred 2-µL aliquots from this dilution series to new 384-well microtiter plates while using a CyBio-Well 384-channel automated pipettor (Analytic Jena, Jena, Germany) and added 18 µL of the diluted suspension of each test species using a Viafill reagent dispenser (Integra), thus reducing the final peptide concentration 10-fold to the range 1024–0.03125 µg/mL. […] The growth of M. smegmatis was measured using the BacTiter-Glo luminescence test system (Promega, Madison, WI, USA). The growth of the other species was determined by visual inspection of the microtiter plate and turbidimetry based on the optical density at 600 nm (OD600). The MIC was defined as the peptide concentration at which no bacterial growth was observed. We supplemented the test medium with either 150 mM NaCl or 1.25 mM CaCl2 to represent monovalent and divalent cations to simulate physiological conditions.

[2] = system: Acinetobacter baumannii clinical isolates (20); assay: MIC, clinical isolates; format: cell-based
Method: as §1, §2

Compound: C[C@@H](O)[C@H]1C(=O)N2C(C(=O)O)=C(S[C@@H]3CN[C@H](C(=O)N(C)C)C3)[C@H](C)[C@H]12 [MEM, meropenem]
- MIC ([1]; Table S1, RKI 205/14): ≤ 0.5 µg/mL
- MIC ([1]; Table S1, RKI 206/14): ≤ 0.5 µg/mL
- MIC ([1]; Table S1, RKI 270/14): ≤ 0.5 µg/mL
- MIC ([1]; Table S1, RKI 277/14): ≤ 0.5 µg/mL
- MIC ([1]; Table S1, RKI 419/14): ≤ 0.5 µg/mL
- MIC ([1]; Table S1, RKI 436/14): ≤ 0.5 µg/mL
- MIC ([1]; Table S1, RKI 437/14): ≤ 0.5 µg/mL
- MIC ([1]; Table S1, RKI 532/14-1): ≤ 0.5 µg/mL
- MIC ([1]; Table S1, RKI 533/14): ≤ 0.5 µg/mL
- MIC ([1]; Table S1, RKI 583/14): ≤ 0.5 µg/mL
- MIC ([2]; Table S1, RKI 3/15): 32 µg/mL (≈ 83.4 µM)
- MIC ([2]; Table S1, RKI 4/15): 32 µg/mL (≈ 83.4 µM)
- MIC ([2]; Table S1, RKI 11/16): > 64 µg/mL
- MIC ([2]; Table S1, RKI 12/16): 64 µg/mL (≈ 167 µM)
- MIC ([2]; Table S1, RKI 13/16): > 64 µg/mL
- MIC ([2]; Table S1, RKI 14/16): > 64 µg/mL
- MIC ([2]; Table S1, RKI 16/15): > 64 µg/mL
- MIC ([2]; Table S1, RKI 16/16): > 64 µg/mL
- MIC ([2]; Table S1, RKI 30/16): > 64 µg/mL
- MIC ([2]; Table S1, RKI 32/16): 64 µg/mL (≈ 167 µM)
- MIC ([2]; Table S1, RKI 70/16): > 64 µg/mL
- MIC ([2]; Table S1, RKI 230/15): > 64 µg/mL
- MIC ([2]; Table S1, RKI 231/15): 64 µg/mL (≈ 167 µM)
- MIC ([2]; Table S1, RKI 271/16): > 64 µg/mL
- MIC ([2]; Table S1, RKI 272/16): > 64 µg/mL
- MIC ([2]; Table S1, RKI 377/15): 8 µg/mL (≈ 20.9 µM)
- MIC ([2]; Table S1, RKI 523/16): 32 µg/mL (≈ 83.4 µM)
- MIC ([2]; Table S1, RKI 584/16): ≤ 0.5 µg/mL
- MIC ([2]; Table S1, RKI 596/16): > 64 µg/mL
